Patent US20260092071A1, “COMPOUNDS AND COMPOSITIONS AS SMARCA2/4 DEGRADERS AND USES THEREOF” (REGENTS OF THE UNIVERSITY OF MICHIGAN, priority 2022, published 2026)
Values belong to the molecule of their own block, whether it stands above or below them.

Assays:
[1] = molecular target: SMARCA4 (Homo sapiens, UniProt P51532); test: HiBit assay in engineered HT1080 CRISPR knock-in cell, 6 hrs (B series), SMARCA4; format: cell-based; details: 6 hrs incubation; for DC50: read-out: SMARC A4 HT1080 HiBit DC50; for Dmax: HT-1080, HT1080 CRISPR knock-in cells, read-out: SMARC A4 HT1080 HiBit Dmax(%)
Sequence of SMARCA4 (P51532 whole entry): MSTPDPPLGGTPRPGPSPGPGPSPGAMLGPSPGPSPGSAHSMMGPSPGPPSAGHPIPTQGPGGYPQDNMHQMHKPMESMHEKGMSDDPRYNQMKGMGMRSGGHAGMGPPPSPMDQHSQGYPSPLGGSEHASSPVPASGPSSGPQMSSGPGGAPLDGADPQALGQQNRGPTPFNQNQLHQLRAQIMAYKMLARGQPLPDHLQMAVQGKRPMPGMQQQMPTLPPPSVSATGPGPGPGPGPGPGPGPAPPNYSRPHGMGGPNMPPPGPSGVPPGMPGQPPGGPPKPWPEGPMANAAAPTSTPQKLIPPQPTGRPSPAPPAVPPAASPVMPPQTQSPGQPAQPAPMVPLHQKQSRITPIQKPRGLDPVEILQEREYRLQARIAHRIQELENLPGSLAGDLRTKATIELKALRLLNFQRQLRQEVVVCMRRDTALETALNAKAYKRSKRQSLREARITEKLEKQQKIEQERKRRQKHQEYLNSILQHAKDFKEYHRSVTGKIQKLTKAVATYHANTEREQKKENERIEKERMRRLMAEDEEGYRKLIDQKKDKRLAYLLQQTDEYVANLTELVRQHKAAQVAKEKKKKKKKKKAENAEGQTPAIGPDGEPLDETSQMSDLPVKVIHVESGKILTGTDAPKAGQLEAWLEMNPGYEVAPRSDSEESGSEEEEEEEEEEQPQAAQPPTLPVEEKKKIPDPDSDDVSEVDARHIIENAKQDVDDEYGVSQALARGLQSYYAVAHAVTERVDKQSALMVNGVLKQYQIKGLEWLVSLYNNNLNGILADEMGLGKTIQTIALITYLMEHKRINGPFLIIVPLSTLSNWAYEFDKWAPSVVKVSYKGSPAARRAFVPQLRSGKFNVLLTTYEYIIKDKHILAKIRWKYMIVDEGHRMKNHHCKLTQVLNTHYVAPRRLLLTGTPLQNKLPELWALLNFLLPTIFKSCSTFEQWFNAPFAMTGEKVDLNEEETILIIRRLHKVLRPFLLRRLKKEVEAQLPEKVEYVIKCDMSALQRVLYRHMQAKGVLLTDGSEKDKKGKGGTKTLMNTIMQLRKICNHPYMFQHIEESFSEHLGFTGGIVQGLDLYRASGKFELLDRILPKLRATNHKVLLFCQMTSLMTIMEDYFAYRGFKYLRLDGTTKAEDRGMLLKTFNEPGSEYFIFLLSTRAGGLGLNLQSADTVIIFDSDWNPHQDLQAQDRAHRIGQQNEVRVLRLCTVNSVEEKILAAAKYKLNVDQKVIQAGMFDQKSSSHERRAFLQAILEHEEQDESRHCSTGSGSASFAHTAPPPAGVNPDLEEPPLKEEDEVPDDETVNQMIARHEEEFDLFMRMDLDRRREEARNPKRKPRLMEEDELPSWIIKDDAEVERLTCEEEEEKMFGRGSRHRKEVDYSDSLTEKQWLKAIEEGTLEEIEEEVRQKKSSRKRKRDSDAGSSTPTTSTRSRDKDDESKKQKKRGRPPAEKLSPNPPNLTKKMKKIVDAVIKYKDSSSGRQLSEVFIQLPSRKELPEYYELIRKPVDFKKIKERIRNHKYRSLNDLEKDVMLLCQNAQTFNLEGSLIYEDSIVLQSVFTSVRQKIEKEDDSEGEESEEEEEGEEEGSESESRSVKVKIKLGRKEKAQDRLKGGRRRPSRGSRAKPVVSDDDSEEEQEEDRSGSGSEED
How it was run: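 HT1080 CRISPR knock-in cells carrying the HiBiT tag were seeded onto compounds (final DMSO 0.1%) and incubated 6 hrs at 37° C, 5% CO2. Remaining tagged protein was detected by lytic HiBiT luminescence after adding LgBiT protein and substrate, with LgBiT-free wells serving as negative control.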

[2] = molecular target: SMARCA2 (Homo sapiens, UniProt P51531); test: HiBit assay in engineered HT1080 CRISPR knock-in cell, 6 hrs (B series), SMARCA2; format: cell-based; details: 6 hrs incubation; for DC50: read-out: SMARC A2 HT1080 HiBit DC50; for Dmax: HT-1080, HT1080 CRISPR knock-in cells, read-out: SMARC A2 HT1080 HiBit Dmax (%)
Sequence of SMARCA2 (P51531 whole entry): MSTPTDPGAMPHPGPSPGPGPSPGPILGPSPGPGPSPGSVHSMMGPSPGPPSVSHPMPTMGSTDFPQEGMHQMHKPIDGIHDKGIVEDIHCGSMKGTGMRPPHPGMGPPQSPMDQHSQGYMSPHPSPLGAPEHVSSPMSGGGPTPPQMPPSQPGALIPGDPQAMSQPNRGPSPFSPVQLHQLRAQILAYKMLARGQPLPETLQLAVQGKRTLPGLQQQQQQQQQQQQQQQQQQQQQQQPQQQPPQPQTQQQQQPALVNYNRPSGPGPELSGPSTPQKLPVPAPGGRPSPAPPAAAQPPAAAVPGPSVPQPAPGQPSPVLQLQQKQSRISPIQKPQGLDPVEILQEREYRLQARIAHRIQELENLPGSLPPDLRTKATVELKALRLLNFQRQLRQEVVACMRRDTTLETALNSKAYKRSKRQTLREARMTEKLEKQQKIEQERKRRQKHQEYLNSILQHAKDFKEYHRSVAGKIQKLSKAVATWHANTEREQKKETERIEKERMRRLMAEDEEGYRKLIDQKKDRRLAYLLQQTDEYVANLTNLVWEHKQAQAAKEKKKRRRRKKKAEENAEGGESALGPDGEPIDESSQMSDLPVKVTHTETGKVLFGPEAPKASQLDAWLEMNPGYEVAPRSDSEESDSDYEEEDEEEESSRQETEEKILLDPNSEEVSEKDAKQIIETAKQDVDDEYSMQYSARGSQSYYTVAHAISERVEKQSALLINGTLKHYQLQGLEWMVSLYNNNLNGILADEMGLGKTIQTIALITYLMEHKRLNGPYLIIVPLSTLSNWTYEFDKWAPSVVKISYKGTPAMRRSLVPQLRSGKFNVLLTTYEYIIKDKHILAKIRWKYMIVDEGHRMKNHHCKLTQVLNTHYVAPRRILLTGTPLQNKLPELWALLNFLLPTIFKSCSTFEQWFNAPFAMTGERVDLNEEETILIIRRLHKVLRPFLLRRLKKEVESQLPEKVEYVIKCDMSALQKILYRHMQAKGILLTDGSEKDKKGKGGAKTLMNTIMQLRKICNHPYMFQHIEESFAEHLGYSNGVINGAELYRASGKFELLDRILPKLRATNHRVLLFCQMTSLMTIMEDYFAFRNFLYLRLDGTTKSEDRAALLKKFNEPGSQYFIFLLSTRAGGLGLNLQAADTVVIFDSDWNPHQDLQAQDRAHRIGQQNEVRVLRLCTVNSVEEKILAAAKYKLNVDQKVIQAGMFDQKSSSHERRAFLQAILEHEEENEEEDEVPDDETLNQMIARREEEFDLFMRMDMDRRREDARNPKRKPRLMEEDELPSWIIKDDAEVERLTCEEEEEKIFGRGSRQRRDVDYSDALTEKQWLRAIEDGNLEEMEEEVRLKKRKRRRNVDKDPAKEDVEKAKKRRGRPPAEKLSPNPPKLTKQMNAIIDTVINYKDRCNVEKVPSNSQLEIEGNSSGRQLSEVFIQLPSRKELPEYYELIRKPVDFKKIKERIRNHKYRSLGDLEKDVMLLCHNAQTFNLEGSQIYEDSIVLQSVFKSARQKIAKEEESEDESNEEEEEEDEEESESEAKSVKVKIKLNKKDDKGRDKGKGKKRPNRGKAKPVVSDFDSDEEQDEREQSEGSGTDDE
How it was run: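 Protein abundance is measured in HiBiT-tagged HT1080 CRISPR knock-in cells after a 6 hr compound treatment (0.1% DMSO) by lytic Nano-Glo HiBiT luminescence.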

SMILES: Cc1ncsc1-c1ccc([C@H](C)NC(=O)[C@@H]2C[C@@H](O)CN2C(=O)C(c2cc(CN3CCC(c4ccc5c(c4)-n4c(nc(=O)c6c(Cl)cccc64)C5(C)C)CC3)no2)C(C)C)cc1 (stereo partly drawn) [Compound B62, (2S,4R)-1-(2-(3-((4-(4-chloro-7,7-dimethyl-5-oxo-5,7-dihydroindolo[1,2-a]quinazolin-10-yl)piperidin-1-yl)methyl)isoxazol-5-yl)-3-methylbutanoyl)-4-hydroxy-N-((S)-1-(4-(4-methylthiazol-5-yl)phenyl)ethyl)pyrrolidine-2-carboxamide]
DC50 ([1]; HT1080 CRISPR knock-in cells): > 1000 nM
Dmax [1]: < 50%
DC50 ([2]; HT1080 CRISPR knock-in cells): < 100 nM
Dmax [2]: 50 to 69%

SMILES: Cc1ncsc1-c1ccc([C@H](CN2CCOCC2)NC(=O)[C@@H]2C[C@@H](O)CN2C(=O)[C@@H](n2cc([C@H]3CC[C@H](S(=O)(=O)N4CCC(c5ccc6c(c5)-n5c(nc(=O)c7c(Cl)cccc75)C65CCCCC5)CC4)CC3)nn2)C(C)(C)C)cc1 [Compound B118, (2S,4R)-1-((S)-2-(4-((1r,4S)-4-((4-(4′-chloro-5′-oxo-5′H-spiro[cyclohexane-1,7′-indolo[1,2-a]quinazolin]-10′-yl)piperidin-1-yl)sulfonyl)cyclohexyl)-1H-1,2,3-triazol-1-yl)-3,3-dimethylbutanoyl)-4-hydroxy-N-((R)-1-(4-(4-methylthiazol-5-yl)phenyl)-2-morpholinoethyl)pyrrolidine-2-carboxamide]
DC50 ([1]; HT1080 CRISPR knock-in cells): 501 to 1000 nM
Dmax [1]: 50 to 69%
DC50 ([2]; HT1080 CRISPR knock-in cells): < 100 nM
Dmax [2]: 70 to 90%

SMILES: Cc1ncsc1-c1ccc([C@H](CC(=O)NCCCCN2CCC(c3ccc4c(c3)-n3c(nc(=O)c5c(Cl)cccc53)C4(C)C)CC2)NC(=O)[C@@H]2C[C@@H](O)CN2C(=O)[C@@H](NC(=O)C2(F)CC2)C(C)(C)C)cc1 [Compound B33, (2S,4R)—N—((S)-3-((4-(4-(4-chloro-7,7-dimethyl-5-oxo-5,7-dihydroindolo[1,2-a]quinazolin-10-yl)piperidin-1-yl)butyl)amino)-1-(4-(4-methylthiazol-5-yl)phenyl)-3-oxopropyl)-1-((S)-2-(1-fluorocyclopropane-1-carboxamido)-3,3-dimethylbutanoyl)-4-hydroxypyrrolidine-2-carboxamide]
DC50 ([1]; HT1080 CRISPR knock-in cells): > 1000 nM
Dmax [1]: < 50%
DC50 ([2]; HT1080 CRISPR knock-in cells): > 1000 nM
Dmax [2]: < 50%

SMILES: Cc1ncsc1-c1ccc([C@H](C)NC(=O)[C@@H]2C[C@@H](O)CN2C(=O)[C@@H](n2cc([C@H]3CC[C@H](CN4CCN(c5ccc6c(c5)-n5c(nc(=O)c7c(Cl)cccc75)C6(C)C)CC4)CC3)nn2)C(C)(C)C)cc1 [Compound B121, (2S,4R)-1-((S)-2-(4-((1r,4S)-4-((4-(4-chloro-7,7-dimethyl-5-oxo-5,7-dihydroindolo[1,2-a]quinazolin-10-yl)piperazin-1-yl)methyl)cyclohexyl)-1H-1,2,3-triazol-1-yl)-3,3-dimethylbutanoyl)-4-hydroxy-N-((S)-1-(4-(4-methylthiazol-5-yl)phenyl)ethyl)pyrrolidine-2-carboxamide]
DC50 ([1]; HT1080 CRISPR knock-in cells): < 100 nM
Dmax [1]: 70 to 90%
DC50 ([2]; HT1080 CRISPR knock-in cells): < 100 nM
Dmax [2]: > 90%

SMILES: Cc1ncsc1-c1ccc([C@H](C)NC(=O)[C@@H]2C[C@@H](O)CN2C(=O)[C@@H](c2cc(OC3CCC(Cn4cc(-c5ccc6c(c5)-n5c(nc(=O)c7c(Cl)cccc75)C6(C)C)cn4)CC3)no2)C(C)C)cc1 (stereo partly drawn) [Compound B95, (2S,4R)-1-((R)-2-(3-((4-((4-(4-chloro-7,7-dimethyl-5-oxo-5,7-dihydroindolo[1,2-a]quinazolin-10-yl)-1H-pyrazol-1-yl)methyl)cyclohexyl)oxy)isoxazol-5-yl)-3-methylbutanoyl)-4-hydroxy-N-((S)-1-(4-(4-methylthiazol-5-yl)phenyl)ethyl)pyrrolidine-2-carboxamide]
DC50 ([1]; HT1080 CRISPR knock-in cells): > 1000 nM
Dmax [1]: < 50%
DC50 ([2]; HT1080 CRISPR knock-in cells): 100 to 500 nM
Dmax [2]: 50 to 69%

SMILES: C[C@H](NC(=O)[C@@H]1C[C@@H](O)CN1C(=O)[C@@H](n1cc([C@H]2CC[C@H](CN3CCC(c4ccc5c(c4)-n4c(nc(=O)c6c(Cl)cccc64)C5(C)C)CC3)CC2)nn1)C(C)(C)C)c1ccc(-c2scnc2C#CCN2CCOCC2)cc1 [Compound B156, (2S,4R)-1-((R)-2-(4-((1r,4R)-4-((4-(4-chloro-7,7-dimethyl-5-oxo-5,7-dihydroindolo[1,2-a]quinazolin-10-yl)piperidin-1-yl)methyl)cyclohexyl)-1H-1,2,3-triazol-1-yl)-3,3-dimethylbutanoyl)-4-hydroxy-N-((S)-1-(4-(4-(3-morpholinoprop-1-yn-1-yl)thiazol-5-yl)phenyl)ethyl)pyrrolidine-2-carboxamide]
DC50 ([1]; HT1080 CRISPR knock-in cells): < 100 nM
Dmax [1]: 50 to 69%
DC50 ([2]; HT1080 CRISPR knock-in cells): < 100 nM
Dmax [2]: > 90%

SMILES: Cc1ncsc1-c1ccc([C@H](C)NC(=O)[C@@H]2C[C@@H](O)CN2C(=O)[C@@H](n2cc(CN3CCC(c4ccc5c(c4)-n4c(nc(=O)c6c(Cl)cccc64)C5(C)C)CC3)nn2)C(C)(C)C)cc1 [Compound B69, (2S,4R)-1-((S)-2-(4-((4-(4-chloro-7,7-dimethyl-5-oxo-5,7-dihydroindolo[1,2-a]quinazolin-10-yl)piperidin-1-yl)methyl)-1H-1,2,3-triazol-1-yl)-3,3-dimethylbutanoyl)-4-hydroxy-N-((S)-1-(4-(4-methylthiazol-5-yl)phenyl)ethyl)pyrrolidine-2-carboxamide]
DC50 ([1]; HT1080 CRISPR knock-in cells): 100 to 500 nM
Dmax [1]: < 50%
DC50 ([2]; HT1080 CRISPR knock-in cells): < 100 nM
Dmax [2]: > 90%

Next, values leading:

DC50 ([1]; HT1080 CRISPR knock-in cells): < 100 nM
Dmax [1]: > 90%
DC50 ([2]; HT1080 CRISPR knock-in cells): < 100 nM
Dmax [2]: > 90%
SMILES: Cc1ncsc1-c1ccc([C@H](C)NC(=O)[C@@H]2C[C@@H](O)CN2C(=O)[C@H](C(C)C)n2cc(CCN3CCC(c4ccc5c(c4)C(C)(C)c4nc(=O)c6c(Cl)cccc6n4-5)CC3)nn2)cc1 [Compound B17, (2S,4R)-1-((S)-2-(4-(2-(4-(4-chloro-7,7-dimethyl-5-oxo-5,7-dihydroindolo[1,2-a]quinazolin-9-yl)piperidin-1-yl)ethyl)-1H-1,2,3-triazol-1-yl)-3-methylbutanoyl)-4-hydroxy-N-((S)-1-(4-(4-methylthiazol-5-yl)phenyl)ethyl)pyrrolidine-2-carboxamide]

DC50 ([1]; HT1080 CRISPR knock-in cells): < 100 nM
Dmax [1]: > 90%
DC50 ([2]; HT1080 CRISPR knock-in cells): < 100 nM
Dmax [2]: > 90%
SMILES: Cc1ncsc1-c1ccc([C@H](C)NC(=O)[C@@H]2C[C@@H](O)CN2C(=O)[C@@H](c2cc(OCCCN3CCC(c4ccc5c(c4)-n4c(nc(=O)c6c(Cl)cccc64)C5(C)C)CC3)no2)C(C)C)cc1 [Compound B26, (2S,4R)-1-((R)-2-(3-(3-(4-(4-chloro-7,7-dimethyl-5-oxo-5,7-dihydroindolo[1,2-a]quinazolin-10-yl)piperidin-1-yl)propoxy)isoxazol-5-yl)-3-methylbutanoyl)-4-hydroxy-N-((S)-1-(4-(4-methylthiazol-5-yl)phenyl)ethyl)pyrrolidine-2-carboxamide]

DC50 ([1]; HT1080 CRISPR knock-in cells): < 100 nM
Dmax [1]: < 50%
DC50 ([2]; HT1080 CRISPR knock-in cells): < 100 nM
Dmax [2]: 50 to 69%
SMILES: Cc1ncsc1-c1ccc([C@H](C)NC(=O)[C@@H]2C[C@@H](O)CN2C(=O)[C@@H](c2cc(OCCCn3cc(-c4ccc5c(c4)-n4c(nc(=O)c6c(Cl)cccc64)C5(C)C)cn3)no2)C(C)C)cc1 [Compound B72, (2S,4R)-1-((R)-2-(3-(3-(4-(4-chloro-7,7-dimethyl-5-oxo-5,7-dihydroindolo[1,2-a]quinazolin-10-yl)-1H-pyrazol-1-yl)propoxy)isoxazol-5-yl)-3-methylbutanoyl)-4-hydroxy-N-((S)-1-(4-(4-methylthiazol-5-yl)phenyl)ethyl)pyrrolidine-2-carboxamide]

SMARC A4 HT1080 HiBit Dmax(%) ([1]; HT1080 CRISPR knock-in cells): C (C (50-69% degradation))
DC50 ([1]; HT1080 CRISPR knock-in cells): < 100 nM
SMARC A2 HT1080 HiBit Dmax (%) ([2]; HT1080 CRISPR knock-in cells): A (A (>90% degradation))
DC50 ([2]; HT1080 CRISPR knock-in cells): < 100 nM
SMILES: Cc1ncsc1-c1ccc([C@H](C)NC(=O)[C@@H]2C[C@@H](O)CN2C(=O)[C@H](C(C)C)n2cc(C3CCC(c4cccc5c4C(C)(C)c4nc(=O)c6c(Cl)cccc6n4-5)CC3)nn2)cc1 (stereo partly drawn) [Compound B162, (2S,4R)-1-((S)-2-(4-(4-(4-chloro-7,7-dimethyl-5-oxo-5,7-dihydroindolo[1,2-a]quinazolin-8-yl)cyclohexyl)-1H-1,2,3-triazol-1-yl)-3-methylbutanoyl)-4-hydroxy-N-((S)-1-(4-(4-methylthiazol-5-yl)phenyl)ethyl)pyrrolidine-2-carboxamide]

DC50 ([1]; HT1080 CRISPR knock-in cells): < 100 nM
Dmax [1]: < 50%
DC50 ([2]; HT1080 CRISPR knock-in cells): < 100 nM
Dmax [2]: 70 to 90%
SMILES: Cc1ncsc1-c1ccc([C@H](C)NC(=O)[C@@H]2C[C@@H](O)CN2C(=O)[C@H](C(C)C)n2cc(CCN3CCC(c4ccc5c(c4)-n4c(nc(=O)c6c(Cl)cccc64)C5(C)C)CC3)nn2)cc1 [Compound B36, (2S,4R)-1-((S)-2-(4-(2-(4-(4-chloro-7,7-dimethyl-5-oxo-5,7-dihydroindolo[1,2-a]quinazolin-10-yl)piperidin-1-yl)ethyl)-1H-1,2,3-triazol-1-yl)-3-methylbutanoyl)-4-hydroxy-N-((S)-1-(4-(4-methylthiazol-5-yl)phenyl)ethyl)pyrrolidine-2-carboxamide]
